Publication PMC3713598, “Renal Protective Role of Xiexin Decoction with Multiple Active Ingredients Involves Inhibition of Inflammation through Downregulation of the Nuclear Factor-κB Pathway in Diabetic Rats” (Evidence-based Complementary and Alternative Medicine : eCAM, 2013)
Read-outs that look alike come from different tables or passages of the source. Values belong to the compound of their own block, whether it stands above or below them.

Key:
diabetic rats [1] = assay: Metabolic parameters in diabetic rats (high-fat diet and streptozotocin); assay type: in vivo, rat; settings: for Serum triglyceride: DM 1.1 ± 0.6; for Serum cholesterol: DM 1.5 ± 0.2; for HbA1c: DM 7.2 ± 0.3; for FBG: DM 22.3 ± 2.8; for GAUC (area under the blood glucose response curve): DM 117.1 ± 6.4
Protocol: (§3) After 1-week adaptation, animals were divided into a normal control (NC) group fed a standard diet and a high-fat group received a high-fat diet. After 4 weeks, rats on the high-fat diet were treated with streptozotocin (40 mg/kg, intraperitoneal injection). […] NC and DM were treated with vehicle (normal saline) in a matched volume. All the rats were administered the drugs via intragastric gavage (ig) once a day, for 12 weeks.
At 12 weeks, FBG and area under the blood glucose response curve (GAUC) were measured by glucose oxidase method. HbA1c was determined by HPLC (Biorad, Richmond, CA, USA). Serum creatinine, urine creatinine, serum total cholesterol, and triglyceride levels were measured using an automatic biochemistry analyser (Olympus-2000, Tokyo, Japan). Creatinine clearance was calculated.

diabetic rats [2] = assay: Renal histopathology (PAS) and electron microscopy in diabetic rats; assay type: in vivo, rat; settings: XXD 1.25 and 2.5 g/kg, losartan 10 mg/kg, metformin 100 mg/kg ig once a day, 12 weeks; compared with DM
Protocol: Male Sprague-Dawley rats (90-100 g) were purchased from the Shanghai Slac Laboratory Animal Co. (Shanghai, China). The rats were housed in an air-conditioned room at 22-24°C under a 12-h dark/light cycle and were given food and water at libitum. All animal experiments were conducted in accordance with the institutional guidelines for the care and use of laboratory animals at Shanghai University of TCM. After 1-week adaptation, animals were divided into a normal control (NC) group fed a standard diet and a high-fat group received a high-fat diet. After 4 weeks, rats on the high-fat diet were treated with streptozotocin (40 mg/kg, intraperitoneal injection). All diabetic rats with fasting blood glucose (FBG) levels above 16.7 mmol/L were then randomly divided into 5 groups: diabetic model control (DM); […] In the clinical practice of TCM, XXD is usually prescribed at a daily dose of 46 g of herbal materials (amount to 12 g extract) for diabetic patient. […] The ratio of the mesangial matrix area to glomerular area (M/G) was determined by quantitative Image-Pro Plus software (PAX-it; […], Villa Park, IL, USA). Briefly, 20 glomeruli were randomly selected from each section, and positive signals within the selected glomerulus were highlighted, measured, and quantified as percent positive area of the entire glomerulus. […]

AGEs = assay: Renal AGEs level by ELISA in diabetic rats; assay type: in vivo, rat; settings: XXD 1.25 and 2.5 g/kg, metformin 100 mg/kg ig once a day, 12 weeks; compared with DM
Protocol: (§1) Male Sprague-Dawley rats (90−100 g) were purchased from the Shanghai Slac Laboratory Animal Co. (Shanghai, China). The rats were housed in an air-conditioned room at 22–24°C under a 12-h dark/light cycle and were given food and water at libitum. All animal experiments were conducted in accordance with the institutional guidelines for the care and use of laboratory animals at Shanghai University of TCM. After 1-week adaptation, animals were divided into a normal control (NC) group fed a standard diet and a high-fat group received a high-fat diet. After 4 weeks, rats on the high-fat diet were treated with streptozotocin (40 mg/kg, intraperitoneal injection). […] In the clinical practice of TCM, XXD is usually prescribed at a daily dose of 46 g of herbal materials (amount to 12 g extract) for diabetic patient. When this human dose was converted into an animal dose (a person of 60 kg, and a conversion factor of 6.25 between human and rat), it was equivalent to the low dose (1.25 g/kg extract) used in this study. NC and DM were treated with vehicle (normal saline) in a matched volume. All the rats were administered the drugs via intragastric gavage (ig) once a day, for 12 weeks.
Tumor necrosis factor α (TNF-α), IL-6 and AGEs protein levels in renal tissue were measured using commercial ELISA kits (R&D, Minneapolis, MN, USA) according to the manufacturer's instructions.

RAGE = assay: Renal RAGE expression by western blot in diabetic rats; assay type: in vivo, rat; settings: XXD 1.25 and 2.5 g/kg, metformin 100 mg/kg ig once a day, 12 weeks; compared with DM
Protocol: as §1, with “NC and DM were treated with vehicle (normal saline) in a matched volume. All the rats were administered the drugs via intragastric gavage (ig) once a day, for 12 weeks.” left out
Kidney tissue was homogenized in radioimmunoprecipitation assay buffer containing 0.5% Nonidet P-40, 0.5% sodium deoxycholate, 0.1% SDS, 10 mmol/L EDTA, and protease inhibitors. […] The membrane-bound antibody was detected by incubation with chemiluminescent reagent plus (Perkin Elmer Life Sciences, Boston, MA, USA) and the signal captured on X-ray film. […]

MCP-1 = assay: Renal MCP-1 protein and mRNA expression in diabetic rats; assay type: in vivo, rat; settings: XXD 1.25 and 2.5 g/kg, losartan 10 mg/kg, metformin 100 mg/kg ig once a day, 12 weeks; compared with DM
Protocol: as §1, with “rats (90-100” for “rats (90−100”, “at 22-24°C” for “at 22–24°C”, “injection). All diabetic rats with fasting blood glucose (FBG) levels above 16.7 mmol/L were then randomly divided into 5 groups: diabetic model control (DM);” for “injection).”, “study. […] The membrane-bound antibody was detected by incubation with chemiluminescent reagent plus (Perkin Elmer Life Sciences, Boston, MA, USA)” for “study. NC”, “and” for “and DM were treated with vehicle (normal saline) in a matched volume. All”, “the signal captured on X-ray film. […]” for “the rats were administered the drugs via intragastric gavage (ig) once a day, for 12 weeks.”

ICAM-1 = assay: Renal ICAM-1 protein and mRNA expression in diabetic rats; assay type: in vivo, rat; settings: XXD 1.25 and 2.5 g/kg, losartan 10 mg/kg, metformin 100 mg/kg ig once a day, 12 weeks; compared with DM
Protocol: as §1, with “rats (90-100” for “rats (90−100”, “at 22-24°C” for “at 22–24°C”, “injection). All diabetic rats with fasting blood glucose (FBG) levels above 16.7 mmol/L were then randomly divided into 5 groups: diabetic model control (DM);” for “injection).”, “study. […] The membrane-bound antibody was detected by incubation with chemiluminescent reagent plus (Perkin Elmer Life Sciences, Boston, MA, USA)” for “study. NC”, “and” for “and DM were treated with vehicle (normal saline) in a matched volume. All”, “the signal captured on X-ray film. […]” for “the rats were administered the drugs via intragastric gavage (ig) once a day, for 12 weeks.”

TNF-α = assay: Renal TNF-α level by ELISA in diabetic rats; assay type: in vivo, rat; settings: XXD 1.25 and 2.5 g/kg, losartan 10 mg/kg, metformin 100 mg/kg ig once a day, 12 weeks; compared with DM
Protocol: (§2) Male Sprague-Dawley rats (90-100 g) were purchased from the Shanghai Slac Laboratory Animal Co. (Shanghai, China). The rats were housed in an air-conditioned room at 22-24°C under a 12-h dark/light cycle and were given food and water at libitum. All animal experiments were conducted in accordance with the institutional guidelines for the care and use of laboratory animals at Shanghai University of TCM. After 1-week adaptation, animals were divided into a normal control (NC) group fed a standard diet and a high-fat group received a high-fat diet. After 4 weeks, rats on the high-fat diet were treated with streptozotocin (40 mg/kg, intraperitoneal injection). All diabetic rats with fasting blood glucose (FBG) levels above 16.7 mmol/L were then randomly divided into 5 groups: diabetic model control (DM); […] In the clinical practice of TCM, XXD is usually prescribed at a daily dose of 46 g of herbal materials (amount to 12 g extract) for diabetic patient. When this human dose was converted into an animal dose (a person of 60 kg, and a conversion factor of 6.25 between human and rat), it was equivalent to the low dose (1.25 g/kg extract) used in this study. […] Tumor necrosis factor α (TNF-α), IL-6 and AGEs protein levels in renal tissue were measured using commercial ELISA kits (R&D, Minneapolis, MN, USA) according to the manufacturer's instructions.

diabetic rats [3] = assay: Urinary albumin excretion and renal function in diabetic rats; assay type: in vivo, rat
Protocol: as §3
At 12 weeks, FBG and area under the blood glucose response curve (GAUC) were measured by glucose oxidase method. HbA1c was determined by HPLC (Biorad, Richmond, CA, USA). Serum creatinine, urine creatinine, serum total cholesterol, and triglyceride levels were measured using an automatic biochemistry analyser (Olympus-2000, Tokyo, Japan). Creatinine clearance was calculated. The kidneys were removed, weighed, and parts of them frozen at −80°C until processing for Western blot and RNA extraction, while other parts were removed for histological examination.

IL-6 = assay: Renal IL-6 level by ELISA in diabetic rats; assay type: in vivo, rat; settings: XXD 1.25 and 2.5 g/kg, losartan 10 mg/kg ig once a day, 12 weeks; compared with DM
Protocol: as §2

TGF-β1 = assay: Renal TGF-β1 protein and mRNA expression in diabetic rats; assay type: in vivo, rat; settings: XXD 1.25 and 2.5 g/kg, losartan 10 mg/kg ig once a day, 12 weeks; compared with DM
Protocol: as §2, with “The membrane-bound antibody was detected by incubation with chemiluminescent reagent plus (Perkin Elmer Life Sciences, Boston, MA, USA)” for “Tumor necrosis factor α (TNF-α), IL-6”, “and” for “and AGEs protein levels in renal tissue were measured using commercial ELISA kits (R&D, Minneapolis, MN, USA) according to”, “signal captured on X-ray film. […]” for “manufacturer's instructions.”

NF-κB signalling pathway = assay: Renal NF-κB signalling pathway (western blot, real-time PCR) in diabetic rats; assay type: in vivo, rat; settings: XXD 1.25 and 2.5 g/kg, losartan 10 mg/kg ig once a day, 12 weeks; compared with DM
Protocol: as §2, with “The membrane-bound antibody was detected by incubation with chemiluminescent reagent plus (Perkin Elmer Life Sciences, Boston, MA, USA)” for “Tumor necrosis factor α (TNF-α), IL-6”, “and” for “and AGEs protein levels in renal tissue were measured using commercial ELISA kits (R&D, Minneapolis, MN, USA) according to”, “signal captured on X-ray film. […]” for “manufacturer's instructions.”

[4] = Pharmacokinetics of XXD ingredients in diabetic rat plasma (LC-MS/MS); assay type: in vivo; settings: diabetic rats; for AUC(0-t) / Cmax: male, Sprague-Dawley, rat, po, plasma, mean ± SD n = 8; for AUC(0-t): read-out: AUC0–24 h; for Cmax: read-out: C max
Protocol: as §1
The rats treated with XXD for 12 weeks were fasted with free access to water for 12 h before the PK experiments. Blood samples were collected before dosing and at 0, 0.25, 0.5, 1, 2, 4, 6, 12, and 24 h following administration. A validated liquid chromatography-tandem mass spectrometry (LC-MS/MS) method was applied to simultaneously determine the concentration of 11 ingredients (coptisine, jatrorrhizine, berberine, palmatine, baicalin, baicalein, wogonoside, wogonin, rhein, emodin, and aloeemodin) in blood plasma. The plasma concentration-time data were analysed by noncompartmental methods with the WinNonLin software package (Pharsight Corporation, Mountain View, CA, USA) to determine PK parameters.

diabetic nephropathy = settings: cited from earlier work
diabetic mouse kidney = test system: diabetic mouse kidney; design: method as in PMID 22483555, PMID 20447389; settings: cited from earlier work
gut microbes = test system: gut microbes; design: method as in PMID 21915347, PMID 22880019; settings: by regulation of gut microbes; cited from earlier work
[5] = metformin 100 mg/kg ig once a day 12 weeks
[6] = losartan 10 mg/kg ig once a day 12 weeks
[7] = XXD 1.25 g/kg intragastric gavage for 12 weeks
[8] = XXD 2.5 g/kg intragastric gavage for 12 weeks

Structure (SMILES): CN(C)C(=N)N=C(N)N [metformin]
Serum triglyceride (diabetic rats [1]; [5]): 1.0 ± 0.3 mmol/L
Serum cholesterol (diabetic rats [1]; [5]): 1.2 ± 0.4 mmol/L
HbA1c (diabetic rats [1]; [5]): 6.6 ± 0.5 %
FBG (diabetic rats [1]; [5]): 9.4 ± 2.5 mmol/L
GAUC (area under the blood glucose response curve) (diabetic rats [1]; [5]): 70.9 ± 9.5 mmol·h/L
renal pathological changes (glomerular hypertrophy, mesangial matrix expansion, M/G, basement membrane thickening) (diabetic rats [2]): ameliorated
total renal AGEs content (AGEs): significantly reduced
renal RAGE expression (RAGE): downregulated
renal protein and mRNA MCP-1 expression (MCP-1): significant reduction
renal protein and mRNA ICAM-1 expression (ICAM-1): significant reduction
renal TNF-α level (TNF-α): significant reduction

Structure (SMILES): CCCCc1nc(Cl)c(CO)n1Cc1ccc(-c2ccccc2-c2nn[nH]n2)cc1 [losartan]
Serum triglyceride (diabetic rats [1]; [6]): 0.7 ± 0.3 mmol/L
Serum cholesterol (diabetic rats [1]; [6]): 1.3 ± 0.2 mmol/L
HbA1c (diabetic rats [1]; [6]): 6.9 ± 0.2%
FBG (diabetic rats [1]; [6]): 21.6 ± 4.4 mmol/L
GAUC (area under the blood glucose response curve) (diabetic rats [1]; [6]): 111.8 ± 11.1 mmol·h/L
urinary albumin excretion (UAE) (diabetic rats [3]; XXD 1.25 and 2.5 g/kg, losartan 10 mg/kg, metformin 100 mg/kg ig once a day, 12 weeks, compared with DM): significantly reduced
Kidney weight/body weight (diabetic rats [3]; losartan 10 mg/kg ig once a day 12 weeks, DM 1.18 ± 0.06): 1.00 ± 0.05 %
renal pathological changes (glomerular hypertrophy, mesangial matrix expansion, M/G, basement membrane thickening) (diabetic rats [2]): ameliorated
renal protein and mRNA MCP-1 expression (MCP-1): significantly downregulated
renal protein and mRNA ICAM-1 expression (ICAM-1): significantly downregulated
renal TNF-α level (TNF-α): significantly downregulated
renal IL-6 level (IL-6): significantly downregulated
renal TGF-β1 protein and mRNA expression (TGF-β1): significantly downregulated
renal IKKα, phospho-IκBα, phospho-NF-κBp65, NF-κBp65 and IκBα protein expression changes (NF-κB signalling pathway): significantly ameliorated
renal NF-κBp65 mRNA expression (NF-κB signalling pathway): downregulated

shape of plasma concentration-time curve ([4]; after ig administration of XXD for 12 weeks): double peaks
AUC(0-t) [4, 7]: 757 ± 389 ng·h/mL
Cmax [4, 7]: 51 ± 20 ng/mL
AUC(0-t) [4, 8]: 1730 ± 1040 ng·h/mL
Cmax [4, 8]: 118 ± 78 ng/mL
Structure (SMILES): COc1ccc2cc3[n+](cc2c1OC)CCc1cc2c(cc1-3)OCO2 [Berberine, berberine]
anti-DN effects (diabetic nephropathy): exhibited anti-DN effects
TGF-β1, ICAM-1, and VCAM-1 protein expression (diabetic mouse kidney): downregulating
renal AGE generation (diabetic mouse kidney): inhibiting
IKBα protein level (diabetic mouse kidney; diabetic mouse kidney): increased
NF-κBp65 protein level (diabetic mouse kidney; diabetic mouse kidney): decreased
blood lipid levels (gut microbes): reduced
